What was measured:
Rattus norvegicus [1] = assay: Distribution in blood of healthy rat 30 min after iv injection into the femoral vein; type: ADME, organism-based; settings: in vivo, 0.5 h
Rattus norvegicus [2] = assay: Distribution in lung of healthy rat 15 min after iv injection into the femoral vein; type: ADME, organism-based; settings: in vivo, 0.25 h
Rattus norvegicus [3] = assay: Distribution in liver of healthy rat 30 min after iv injection into the femoral vein; type: ADME, organism-based; settings: in vivo, 0.5 h
Rattus norvegicus [4] = assay: Distribution in small intestine of healthy rat 15 min after iv injection into the femoral vein; type: ADME, organism-based; settings: in vivo, 0.25 h
Rattus norvegicus [5] = assay: Distribution in bladder and urine of healthy rat 30 min after iv injection into the femoral vein; type: ADME, organism-based, Urinary bladder/Urine; settings: in vivo, 0.5 h
Rattus norvegicus [6] = assay: Distribution in content of small intestine of healthy rat 4 hr after iv injection into the femoral vein; type: ADME, organism-based; settings: in vivo
Rattus norvegicus [7] = assay: Distribution in spleen of healthy rat 15 min after iv injection into the femoral vein; type: ADME, organism-based; settings: in vivo, 0.25 h
Rattus norvegicus [8] = assay: Distribution in content of colon of healthy rat 24 hr after iv injection into the femoral vein; type: ADME, organism-based; settings: in vivo
Rattus norvegicus [9] = assay: Distribution in content of small intestine of healthy rat 15 min after iv injection into the femoral vein; type: ADME, organism-based; settings: in vivo, 0.25 h
Rattus norvegicus [10] = assay: Distribution in lung of healthy rat 4 hr after iv injection into the femoral vein; type: ADME, organism-based; settings: in vivo
Rattus norvegicus [11] = assay: Distribution in liver of healthy rat 24 hr after iv injection into the femoral vein; type: ADME, organism-based; settings: in vivo
Rattus norvegicus [12] = assay: Distribution in thyroid gland of healthy rat 4 hr after iv injection into the femoral vein; type: ADME, organism-based; settings: in vivo
Rattus norvegicus [13] = assay: Distribution in colon of healthy rat 5 min after iv injection into the femoral vein; type: ADME, organism-based; settings: in vivo
Rattus norvegicus [14] = assay: Distribution in kidney of healthy rat 24 hr after iv injection into the femoral vein; type: ADME, organism-based; settings: in vivo
Rattus norvegicus [15] = assay: Distribution in thyroid gland of healthy rat 24 hr after iv injection into the femoral vein; type: ADME, organism-based; settings: in vivo
Rattus norvegicus [16] = assay: Distribution in blood of healthy rat 15 min after iv injection into the femoral vein; type: ADME, organism-based; settings: in vivo, 0.25 h
Rattus norvegicus [17] = assay: Distribution in stomach of healthy rat 4 hr after iv injection into the femoral vein; type: ADME, organism-based; settings: in vivo
Rattus norvegicus [18] = assay: Distribution in liver of healthy rat 5 min after iv injection into the femoral vein; type: ADME, organism-based; settings: in vivo
Rattus norvegicus [19] = assay: Distribution in spleen of healthy rat 4 hr after iv injection into the femoral vein; type: ADME, organism-based; settings: in vivo
Rattus norvegicus [20] = assay: Distribution in small intestine of healthy rat 24 hr after iv injection into the femoral vein; type: ADME, organism-based; settings: in vivo
Rattus norvegicus [21] = assay: Distribution in small intestine of healthy rat 30 min after iv injection into the femoral vein; type: ADME, organism-based; settings: in vivo, 0.5 h
Rattus norvegicus [22] = assay: Distribution in bladder and urine of healthy rat 15 min after iv injection into the femoral vein; type: ADME, organism-based, Urinary bladder/Urine; settings: in vivo, 0.25 h
B2 bradykinin receptor [23] = biological target: T1, B2 bradykinin receptor (Cavia porcellus, UniProt O70526); assay: In vitro antagonistic activity for Bradykinin receptor B2 by guinea pig pulmonary artery assay.; type: functional
T1 sequence (O70526 whole entry): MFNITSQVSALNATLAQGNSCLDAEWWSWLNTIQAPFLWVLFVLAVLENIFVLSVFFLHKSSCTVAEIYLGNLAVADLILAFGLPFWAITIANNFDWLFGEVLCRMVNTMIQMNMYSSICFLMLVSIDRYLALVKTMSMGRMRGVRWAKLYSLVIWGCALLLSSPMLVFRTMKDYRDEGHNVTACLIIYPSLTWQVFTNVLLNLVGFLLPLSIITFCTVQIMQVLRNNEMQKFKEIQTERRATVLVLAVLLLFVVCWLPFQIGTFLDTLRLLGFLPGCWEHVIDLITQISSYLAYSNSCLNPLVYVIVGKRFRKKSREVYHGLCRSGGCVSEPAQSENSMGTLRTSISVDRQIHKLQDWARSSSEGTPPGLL

Rattus norvegicus [24] = assay: Distribution in bladder and urine of healthy rat 24 hr after iv injection into the femoral vein; type: ADME, organism-based, Urinary bladder/Urine; settings: in vivo
B2 bradykinin receptor [25] = biological target: T1, B2 bradykinin receptor; assay: In vitro antagonistic activity for Bradykinin receptor B2 by guinea pig ileal membrane receptor assay.; type: functional
Rattus norvegicus [26] = assay: Distribution in small intestine of healthy rat 5 min after iv injection into the femoral vein; type: ADME, organism-based; settings: in vivo
Rattus norvegicus [27] = assay: Distribution in colon of healthy rat 15 min after iv injection into the femoral vein; type: ADME, organism-based; settings: in vivo, 0.25 h
Rattus norvegicus [28] = assay: Distribution in liver of healthy rat 15 min after iv injection into the femoral vein; type: ADME, organism-based; settings: in vivo, 0.25 h
Rattus norvegicus [29] = assay: Distribution in blood of healthy rat 5 min after iv injection into the femoral vein; type: ADME, organism-based; settings: in vivo
Rattus norvegicus [30] = assay: Distribution in spleen of healthy rat 5 min after iv injection into the femoral vein; type: ADME, organism-based; settings: in vivo
Rattus norvegicus [31] = assay: Distribution in liver of healthy rat 4 hr after iv injection into the femoral vein; type: ADME, organism-based; settings: in vivo
Rattus norvegicus [32] = assay: Distribution in stomach of healthy rat 30 min after iv injection into the femoral vein; type: ADME, organism-based; settings: in vivo, 0.5 h
Rattus norvegicus [33] = assay: Distribution in stomach of healthy rat 15 min after iv injection into the femoral vein; type: ADME, organism-based; settings: in vivo, 0.25 h
Rattus norvegicus [34] = assay: Distribution in content of colon of healthy rat 15 min after iv injection into the femoral vein; type: ADME, organism-based; settings: in vivo, 0.25 h
Rattus norvegicus [35] = assay: Distribution in colon of healthy rat 24 hr after iv injection into the femoral vein; type: ADME, organism-based; settings: in vivo
Rattus norvegicus [36] = assay: Distribution in thyroid gland of healthy rat 30 min after iv injection into the femoral vein; type: ADME, organism-based; settings: in vivo, 0.5 h
Rattus norvegicus [37] = assay: Distribution in spleen of healthy rat 24 hr after iv injection into the femoral vein; type: ADME, organism-based; settings: in vivo
Rattus norvegicus [38] = assay: Distribution in spleen of healthy rat 30 min after iv injection into the femoral vein; type: ADME, organism-based; settings: in vivo, 0.5 h
Rattus norvegicus [39] = assay: Distribution in content of small intestine of healthy rat 24 hr after iv injection into the femoral vein; type: ADME, organism-based; settings: in vivo
Rattus norvegicus [40] = assay: Distribution in blood of healthy rat 24 hr after iv injection into the femoral vein; type: ADME, organism-based; settings: in vivo
Rattus norvegicus [41] = assay: Distribution in colon of healthy rat 30 min after iv injection into the femoral vein; type: ADME, organism-based; settings: in vivo, 0.5 h
Rattus norvegicus [42] = assay: Distribution in small intestine of healthy rat 4 hr after iv injection into the femoral vein; type: ADME, organism-based; settings: in vivo
Rattus norvegicus [43] = assay: Distribution in stomach of healthy rat 5 min after iv injection into the femoral vein; type: ADME, organism-based; settings: in vivo
Rattus norvegicus [44] = assay: Distribution in content of colon of healthy rat 30 min after iv injection into the femoral vein; type: ADME, organism-based; settings: in vivo, 0.5 h
Rattus norvegicus [45] = assay: Distribution in bladder and urine of healthy rat 4 hr after iv injection into the femoral vein; type: ADME, organism-based, Urinary bladder/Urine; settings: in vivo
Rattus norvegicus [46] = assay: Distribution in content of small intestine of healthy rat 5 min after iv injection into the femoral vein; type: ADME, organism-based; settings: in vivo
Rattus norvegicus [47] = assay: Distribution in stomach of healthy rat 24 hr after iv injection into the femoral vein; type: ADME, organism-based; settings: in vivo
Rattus norvegicus [48] = assay: Distribution in colon of healthy rat 4 hr after iv injection into the femoral vein; type: ADME, organism-based; settings: in vivo
Rattus norvegicus [49] = assay: Distribution in content of colon of healthy rat 4 hr after iv injection into the femoral vein; type: ADME, organism-based; settings: in vivo
Rattus norvegicus [50] = assay: Distribution in lung of healthy rat 24 hr after iv injection into the femoral vein; type: ADME, organism-based; settings: in vivo
Rattus norvegicus [51] = assay: Distribution in blood of healthy rat 4 hr after iv injection into the femoral vein; type: ADME, organism-based; settings: in vivo
Rattus norvegicus [52] = assay: Distribution in lung of healthy rat 5 min after iv injection into the femoral vein; type: ADME, organism-based; settings: in vivo
Rattus norvegicus [53] = assay: Distribution in kidney of healthy rat 5 min after iv injection into the femoral vein; type: ADME, organism-based; settings: in vivo
Rattus norvegicus [54] = assay: Distribution in kidney of healthy rat 15 min after iv injection into the femoral vein; type: ADME, organism-based; settings: in vivo, 0.25 h
Rattus norvegicus [55] = assay: Distribution in lung of healthy rat 30 min after iv injection into the femoral vein; type: ADME, organism-based; settings: in vivo, 0.5 h
Rattus norvegicus [56] = assay: Distribution in kidney of healthy rat 30 min after iv injection into the femoral vein; type: ADME, organism-based; settings: in vivo, 0.5 h
Rattus norvegicus [57] = assay: Distribution in bladder and urine of healthy rat 5 min after iv injection into the femoral vein; type: ADME, organism-based, Urinary bladder/Urine; settings: in vivo
Rattus norvegicus [58] = assay: Distribution in content of colon of healthy rat 5 min after iv injection into the femoral vein; type: ADME, organism-based; settings: in vivo
Rattus norvegicus [59] = assay: Distribution in kidney of healthy rat 4 hr after iv injection into the femoral vein; type: ADME, organism-based; settings: in vivo
Rattus norvegicus [60] = assay: Distribution in content of small intestine of healthy rat 30 min after iv injection into the femoral vein; type: ADME, organism-based; settings: in vivo, 0.5 h
[61] = Distribution in feces of healthy rat 24 hr after iv injection into the femoral vein; type: ADME, organism-based; settings: faeces, read-out: Organ distribution
Rattus norvegicus [62] = assay: Distribution in thyroid gland of healthy rat 5 min after iv injection into the femoral vein; type: ADME, organism-based; settings: in vivo
Rattus norvegicus [63] = assay: Distribution in thyroid gland of healthy rat 15 min after iv injection into the femoral vein; type: ADME, organism-based; settings: in vivo, 0.25 h

## N=C(N)NCCC[C@H](NC(=O)[C@@H]1C[C@@H]2CCCC[C@@H]2N1C(=O)[C@H]1Cc2ccccc2CN1C(=O)[C@H](CO)NC(=O)[C@H](Cc1cccs1)NC(=O)CNC(=O)[C@@H]1C[C@@H](O)CN1C(=O)[C@@H]1CCCN1C(=O)[C@H](CCCNC(=N)N)NC(=O)[C@@H](CCCNC(=N)N)NC(=O)c1ccc(CN2CCCNCCNCCCNCC2)cc1)C(=O)O
Rattus norvegicus [1]
  Organ distribution: 5.5%
Rattus norvegicus [2]
  Organ distribution: 0.82%
Rattus norvegicus [3]
  Organ distribution: 4.31%
Rattus norvegicus [4]
  Organ distribution: 3.74%
Rattus norvegicus [5]
  Organ distribution: 33%
Rattus norvegicus [6]
  Organ distribution: 1.85%
Rattus norvegicus [7]
  Organ distribution: 0.19%
Rattus norvegicus [8]
  Organ distribution: 0.56%
Rattus norvegicus [9]
  Organ distribution: 2.79%
Rattus norvegicus [10]
  Organ distribution: 0.1%
Rattus norvegicus [11]
  Organ distribution: 2.72%
Rattus norvegicus [12]
  Organ distribution: 0.02%
Rattus norvegicus [13]
  Organ distribution: 1%
Rattus norvegicus [14]
  Organ distribution: 3.07%
Rattus norvegicus [15]
  Organ distribution: 0.01%
Rattus norvegicus [16]
  Organ distribution: 8.62%
Rattus norvegicus [17]
  Organ distribution: 0.46%
Rattus norvegicus [18]
  Organ distribution: 5.25%
Rattus norvegicus [19]
  Organ distribution: 0.12%
Rattus norvegicus [20]
  Organ distribution: 0.19%
Rattus norvegicus [21]
  Organ distribution: 1.67%
Rattus norvegicus [22]
  Organ distribution: 20.3%
B2 bradykinin receptor [23]
  IC50: 14 nM
Rattus norvegicus [24]
  Organ distribution: 79.9%
B2 bradykinin receptor [25]
  IC50: 8.03 nM
Rattus norvegicus [26]
  Organ distribution: 2.92%
Rattus norvegicus [27]
  Organ distribution: 0.65%
Rattus norvegicus [28]
  Organ distribution: 4.48%
Rattus norvegicus [29]
  Organ distribution: 13.2%
Rattus norvegicus [30]
  Organ distribution: 0.27%
Rattus norvegicus [31]
  Organ distribution: 5.03%
Rattus norvegicus [32]
  Organ distribution: 0.91%
Rattus norvegicus [33]
  Organ distribution: 1.13%
Rattus norvegicus [34]
  Organ distribution: 0.2%
Rattus norvegicus [35]
  Organ distribution: 0.09%
Rattus norvegicus [36]
  Organ distribution: 0.11%
Rattus norvegicus [37]
  Organ distribution: 0.08%
Rattus norvegicus [38]
  Organ distribution: 0.19%
Rattus norvegicus [39]
  Organ distribution: 0.06%
Rattus norvegicus [40]
  Organ distribution: 0.5%
Rattus norvegicus [41]
  Organ distribution: 0.48%
Rattus norvegicus [42]
  Organ distribution: 0.71%
Rattus norvegicus [43]
  Organ distribution: 1.55%
Rattus norvegicus [44]
  Organ distribution: 0.17%
Rattus norvegicus [45]
  Organ distribution: 74.9%
Rattus norvegicus [46]
  Organ distribution: 1.83%
Rattus norvegicus [47]
  Organ distribution: 0.06%
Rattus norvegicus [48]
  Organ distribution: 0.44%
Rattus norvegicus [49]
  Organ distribution: 6.96%
Rattus norvegicus [50]
  Organ distribution: 0.04%
Rattus norvegicus [51]
  Organ distribution: 0.5%
Rattus norvegicus [52]
  Organ distribution: 1.2%
Rattus norvegicus [53]
  Organ distribution: 8.46%
Rattus norvegicus [54]
  Organ distribution: 7%
Rattus norvegicus [55]
  Organ distribution: 0.55%
Rattus norvegicus [56]
  Organ distribution: 8.86%
Rattus norvegicus [57]
  Organ distribution: 3.83%
Rattus norvegicus [58]
  Organ distribution: 0.22%
Rattus norvegicus [59]
  Organ distribution: 4.33%
Rattus norvegicus [60]
  Organ distribution: 4.84%
[61]
  dose excreted at 24 h: 8.4%
Rattus norvegicus [62]
  Organ distribution: 0.12%
Rattus norvegicus [63]
  Organ distribution: 0.11%

Source: ChEMBL document CHEMBL1128686, “Technetium-99m-labeled HOE 140: a potential bradykinin B2 receptor imaging agent” (J Med Chem, 1995)
